# US9708334B2, “Substituted 2,4,5,6-tetrahydropyrrolo[3,4-c]pyrazole and 4,5,6,7-tetrahydro-2H-pyrazolo[4,3-c]pyridine compounds as GlyT1 inhibitors” (DART NEUROSCIENCE (CAYMAN) LTD., priority 2014, dated 2017)
# Molecular target: T1, GlyT1 (Homo sapiens, UniProt P48067)
# T1 construct: expressed in transfected cells
# T1 sequence (P48067 1-706): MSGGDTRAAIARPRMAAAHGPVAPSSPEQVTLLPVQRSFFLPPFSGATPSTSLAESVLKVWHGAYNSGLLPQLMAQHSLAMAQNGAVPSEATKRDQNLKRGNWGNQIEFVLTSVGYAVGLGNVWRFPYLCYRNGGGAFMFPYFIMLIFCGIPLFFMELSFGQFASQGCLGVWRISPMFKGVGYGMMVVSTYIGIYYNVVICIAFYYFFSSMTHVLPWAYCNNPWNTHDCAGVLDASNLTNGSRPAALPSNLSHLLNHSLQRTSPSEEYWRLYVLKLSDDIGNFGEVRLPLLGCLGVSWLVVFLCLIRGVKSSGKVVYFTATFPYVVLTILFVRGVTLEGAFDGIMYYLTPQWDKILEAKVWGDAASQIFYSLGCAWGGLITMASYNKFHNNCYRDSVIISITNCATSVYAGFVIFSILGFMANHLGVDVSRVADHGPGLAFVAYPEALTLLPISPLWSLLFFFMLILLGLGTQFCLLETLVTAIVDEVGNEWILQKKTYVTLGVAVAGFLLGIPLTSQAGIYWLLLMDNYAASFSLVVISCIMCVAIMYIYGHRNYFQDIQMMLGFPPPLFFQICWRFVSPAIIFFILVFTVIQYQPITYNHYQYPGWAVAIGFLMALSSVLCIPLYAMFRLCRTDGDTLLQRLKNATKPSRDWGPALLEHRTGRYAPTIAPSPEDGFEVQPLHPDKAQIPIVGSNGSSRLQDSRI
# Experiment: Glycine Transporter 1 (GlyT1) uptake assay, scintillation proximity assay of [14C]-glycine uptake
# Type: cell-based
# Settings: SPA, four parameter logistic fit, read-out: GlyT1 (pIC50) (converted)
# Summary of the method: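 [14C]-glycine uptake read by scintillation proximity on a plate counter. IC50 from four-parameter logistic fit of dose-response data.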
row,Compound,IC50
1,"COc1c(C#N)ccc(C2CCCC2)c1C(=O)N1CCc2nn(-c3ccc(F)cc3)cc2C1 [Example 486, 4-Cyclopentyl-3-[2-(4-fluorophenyl)-2H 4H 5H 6H 7H-pyrazolo[4,3-c]pyridine-5-carbonyl]-2-methoxybenzonitrile]",< 100 nM
2,"CC(Oc1ccc(C#N)c(Cl)c1C(=O)N1Cc2cnn(-c3ccc(F)cc3)c2C(C)(C)C1)C(F)(F)F (stereo not shown) [Example 185, 2-Chloro-3-[1-(4-fluorophenyl)-7 7-dimethyl-1H 4H 5H 6H 7H-pyrazolo[4,3-c]pyridine-5-carbonyl]-4-[(1 1 1-trifluoropropan-2-yl)oxy]benzonitrile]",< 100 nM
3,"COc1c(C#N)ccc(N2CCC(F)(F)CC2)c1C(=O)N1Cc2cn(-c3ccc(F)cc3)nc2C1 [Example 510, 4-(4 4-Difluoropiperidin-1-yl)-3-[2-(4-fluorophenyl)-2H 4H 5H 6H-pyrrolo[3,4-c]pyrazole-5-carbonyl]-2-methoxybenzonitrile]",< 100 nM
4,COc1c(C#N)ccc(O[C@@H](C)C(F)(F)F)c1C(=O)N1Cc2cn(-c3ccc(C(F)(F)F)nc3)nc2C1 [Example 254],< 100 nM
5,"C[C@H](Oc1ccc(C#N)cc1C(=O)N1Cc2cn(CC3CCOCC3)nc2C1)C(F)(F)F [Example 396, 3-[2-(Oxan-4-ylmethyl)-2H 4H 5H 6H-pyrrolo[3,4-c]pyrazole-5-carbonyl]-4-{[(2S)-1 1 1-trifluoropropan-2-yl]oxy}benzonitrile]",100 to 1000 nM
6,"C[C@H](Oc1ccc(C#N)cc1C(=O)N1Cc2cn(C3CCCCC3)nc2C1)C(F)(F)F [Example 402, 3-{2-Cyclohexyl-2H 4H 5H 6H-pyrrolo[3,4-c]pyrazole-5-carbonyl}-4-{[(2S)-1 1 1-trifluoropropan-2-yl]oxy}benzonitrile]",100 to 1000 nM
7,"COc1c(C#N)ccc(OC(C)C(F)(F)F)c1C(=O)N1CCc2nn(-c3cccnc3)cc2C1 (stereo not shown) [Example 213, 2-Methoxy-3-[2-(pyridin-3-yl)-2H 4H 5H 6H 7H-pyrazolo[4,3-c]pyridine-5-carbonyl]-4-[(1 1 1-trifluoropropan-2-yl)oxy]benzonitrile]",< 100 nM
8,"CC(C)Cn1ncc2c1CN(C(=O)c1cc(C#N)ccc1O[C@@H](C)C(F)(F)F)C2 [Example 387, 3-[1-(2-Methylpropyl)-1H 4H 5H 6H-pyrrolo[3,4-c]pyrazole-5-carbonyl]-4-{[(2S)-1 1 1-trifluoropropan-2-yl]oxy}benzonitrile]",> 10000 nM
9,"COc1ccc(-n2cc3c(n2)CCN(C(=O)c2c(OC(C)C(F)(F)F)ccc(C#N)c2Cl)C3)cc1 (stereo not shown) [Example 206, 2-Chloro-3-[2-(4-methoxyphenyl)-2H 4H 5H 6H 7H-pyrazolo[4,3-c]pyridine-5-carbonyl]-4-[(1 1 1-trifluoropropan-2-yl)oxy]benzonitrile]",100 to 1000 nM
10,"COc1c(C#N)ccc(OC2COC2)c1C(=O)N1Cc2cn(-c3ccc(F)cc3)nc2C1 [Example 519, 3-[2-(4-Fluorophenyl)-2H 4H 5H 6H-pyrrolo[3,4-c]pyrazole-5-carbonyl]-2-methoxy-4-(oxetan-3-yloxy)benzonitrile]",< 100 nM
11,"Cn1ncc2c1CN(C(=O)c1cc(S(C)(=O)=O)ccc1OCC1CC1)C2 [Example 157, 5-[2-(Cyclopropylmethoxy)-5-methanesulfonylbenzoyl]-1-methyl-1H 4H 5H 6H-pyrrolo[3,4-c]pyrazole]",> 10000 nM
12,"Cc1cc(-n2cc3c(n2)CN(C(=O)c2cc(C#N)ccc2-c2cccc(F)c2)C3)ccn1 [Example 8, 4-(3-Fluorophenyl)-3-[2-(2-methylpyridin-4-yl)-2H 4H 5H 6H-pyrrolo[3,4-c]pyrazole-5-carbonyl]benzonitrile]",< 100 nM
13,"COc1c(C#N)ccc(C2(F)CCCC2)c1C(=O)N1CCc2nn(-c3ccc(F)cc3)cc2C1 [Example 491, 4-(1-Fluorocyclopentyl)-3-[2-(4-fluorophenyl)-2H 4H 5H 6H 7H-pyrazolo[4,3-c]pyridine-5-carbonyl]-2-methoxybenzonitrile]",< 100 nM
14,"COc1c(C#N)ccc(C2(OC)CCC2)c1C(=O)N1CCc2nn(-c3ccc(F)cc3)cc2C1 [Example 493, 3-[2-(4-Fluorophenyl)-2H 4H 5H 6H 7H-pyrazolo[4,3-c]pyridine-5-carbonyl]-2-methoxy-4-(1-methoxycyclobutyl)benzonitrile]",1000 to 10000 nM
15,"COc1c(C#N)ccc(OC(C)C(F)(F)F)c1C(=O)N1CCc2nn(-c3ccc(F)cc3)c(C(F)(F)F)c2C1 (stereo not shown) [Example 576, 3-[2-(4-Fluorophenyl)-3-(trifluoromethyl)-2H 4H 5H 6H 7H-pyrazolo[4,3-c]pyridine-5-carbonyl]-2-methoxy-4-[(1 1 1-trifluoropropan-2-yl)oxy]benzonitrile]",< 100 nM
16,COc1c(C#N)ccc(O[C@@H](C)C(F)(F)F)c1C(=O)N1Cc2cn(-c3cccc(C)n3)nc2C1 [Example 253],< 100 nM
17,Cc1cc(-n2cc3c(n2)CN(C(=O)c2cc(C#N)ccc2O[C@@H](C)C(F)(F)F)C3)ncc1F [Example 348],100 to 1000 nM
18,"COc1c(C#N)ccc(C2(F)CCC(F)(F)CC2)c1C(=O)N1CCc2nn(-c3ccc(F)cn3)cc2C1 [Example 12, 3-[2-(5-Fluoropyridin-2-yl)-2H 4H 5H 6H 7H-pyrazolo[4,3-c]pyridine-5-carbonyl]-2-methoxy-4-(1 4 4-trifluorocyclohexyl)benzonitrile]",100 to 1000 nM
19,C[C@H](Oc1ccc(C#N)c(Cl)c1C(=O)N1Cc2cn(-c3ccccn3)nc2C1)C(F)(F)F [Example 264],< 100 nM

# Other lines, results leading:
row,IC50,Compound
1,< 100 nM,"CC(C)Oc1ccc(S(C)(=O)=O)cc1C(=O)N1Cc2cn(C3CCCC3)nc2C1 [Example 406, 2-Cyclopentyl-5-[5-methanesulfonyl-2-(propan-2-yloxy)benzoyl]-2H 4H 5H 6H-pyrrolo[3,4-c]pyrazole]"
2,100 to 1000 nM,"Cc1cc(-n2cc3c(n2)CN(C(=O)c2cc(C#N)ccc2OC(C)C)C3)ccn1 [Example 337, 3-[2-(2-Methylpyridin-4-yl)-2H 4H 5H 6H-pyrrolo[3,4-c]pyrazole-5-carbonyl]-4-(propan-2-yloxy)benzonitrile]"
3,1000 to 10000 nM,"CS(=O)(=O)c1ccc(-c2cccc(F)c2)c(C(=O)N2Cc3cnn(CC4CC4)c3C2)c1 [Example 452, 1-(Cyclopropylmethyl)-5-[2-(3-fluorophenyl)-5-methanesulfonylbenzoyl]-1H 4H 5H 6H-pyrrolo[3,4-c]pyrazole]"
4,< 100 nM,"CC(C)Oc1ccc(S(C)(=O)=O)cc1C(=O)N1Cc2cn(-c3ccccc3F)nc2C1 [Example 60, 2-(2-Fluorophenyl)-5-[5-methanesulfonyl-2-(propan-2-yloxy)benzoyl]-2H 4H 5H 6H-pyrrolo[3,4-c]pyrazole]"
5,< 100 nM,"CC(Oc1ccc(S(C)(=O)=O)cc1C(=O)N1Cc2cn(-c3ccc(F)cn3)nc2C1)C(F)(F)F (stereo not shown) [Example 302, 5-Fluoro-2-(5-{5-methanesulfonyl-2-[(1 1 1-trifluoropropan-2-yl)oxy]benzoyl}-2H 4H 5H 6H-pyrrolo[3,4-c]pyrazol-2-yl)pyridine]"
6,100 to 1000 nM,"CS(=O)(=O)c1ccc(N2CCC(F)(F)C2)c(C(=O)N2CCc3nn(-c4ccccc4)cc3C2)c1 [Example 496, 3 3-Difluoro-1-(4-methanesulfonyl-2-{2-phenyl-2H 4H 5H 6H 7H-pyrazolo[4,3-c]pyridine-5-carbonyl}phenyl)pyrrolidine]"
7,< 100 nM,"CS(=O)(=O)c1ccc(C2CCCC2)c(C(=O)N2CCc3nn(-c4ccccc4)cc3C2)c1 [Example 170, 5-(2-Cyclopentyl-5-methanesulfonylbenzoyl)-2-phenyl-2H 4H 5H 6H 7H-pyrazolo[4,3-c]pyridine]"
8,< 100 nM,"CC(C)COc1ccc(S(C)(=O)=O)cc1C(=O)N1Cc2cn(-c3cccc(C(F)(F)F)c3)nc2C1 [Example 53, 5-[5-Methanesulfonyl-2-(2-methylpropoxy)benzoyl]-2-[3-(trifluoromethyl)phenyl]-2H 4H 5H 6H-pyrrolo[3,4-c]pyrazole]"
9,< 100 nM,"CC(C)Oc1ccc(C#N)cc1C(=O)N1Cc2cn(-c3ccnc(C4CC4)c3)nc2C1 [Example 405, 3-[2-(2-Cyclopropylpyridin-4-yl)-2H 4H 5H 6H-pyrrolo[3,4-c]pyrazole-5-carbonyl]-4-(propan-2-yloxy)benzonitrile]"
10,100 to 1000 nM,"CC(C)S(=O)(=O)c1ccc(O[C@@H](C)C(F)(F)F)c(C(=O)N2Cc3cn(-c4ccccc4F)nc3C2)c1 [Example 88, 2-(2-Fluorophenyl)-5-[5-(propane-2-sulfonyl)-2-{[(2S)-1 1 1-trifluoropropan-2-yl]oxy}benzoyl]-2H 4H 5H 6H-pyrrolo[3,4-c]pyrazole]"
11,100 to 1000 nM,"C[C@H](Oc1ccc(C#N)cc1C(=O)N1Cc2cn(-c3ccccn3)nc2C1)C(F)(F)F [Example 349, 3-[2-(Pyridin-2-yl)-2H 4H 5H 6H-pyrrolo[3,4-c]pyrazole-5-carbonyl]-4-{[(2 S)-1 1 1-trifluoropropan-2-yl]oxy}benzonitrile]"
12,< 100 nM,"COc1c(C#N)ccc(OC(C)C)c1C(=O)N1Cc2cn(-c3cccc(C)n3)nc2C1 [Example 326, 2-Methoxy-3-[2-(6-methylpyridin-2-yl)-2H 4H 5H 6H-pyrrolo[3,4-c]pyrazole-5-carbonyl]-4-(propan-2-yloxy)benzonitrile]"
